From US20090326072A1, “USE OF 2-(2-NITRO-4-TRIFLUOROMETHYLBENZOYL)-l,3- CYCLOHEXANEDIONE IN THE TREATMENT OF PARKINSON'S DISEASE” (priority 2005, published 2009)
“Also recorded” adds a separate entry of the source. Read-outs that look alike come from different tables or passages of the source.

What was measured:
[1] = biological target: T1, 4-hydroxyphenyl pyruvate dioxygenase (HPPD) (Rattus norvegicus, UniProt P32755); assay: Determination of 4-hydroxyphenyl pyruvate dioxygenase (HPPD) enzyme activity in vitro (rate of oxygen consumption, rat liver cytosol); type: biochemical; settings: for inhibition at 0.1 µM: read-out: % Inhibition at 100 nM; for inhibition at 0.3 µM: read-out: % inhibition at 300 nM
T1 construct: rat liver cytosol (2.7 mg of protein/ml incubate); from tissue; host or cells: rat liver (cytosol, 110,000 g supernatant)
T1 sequence (P32755 whole entry): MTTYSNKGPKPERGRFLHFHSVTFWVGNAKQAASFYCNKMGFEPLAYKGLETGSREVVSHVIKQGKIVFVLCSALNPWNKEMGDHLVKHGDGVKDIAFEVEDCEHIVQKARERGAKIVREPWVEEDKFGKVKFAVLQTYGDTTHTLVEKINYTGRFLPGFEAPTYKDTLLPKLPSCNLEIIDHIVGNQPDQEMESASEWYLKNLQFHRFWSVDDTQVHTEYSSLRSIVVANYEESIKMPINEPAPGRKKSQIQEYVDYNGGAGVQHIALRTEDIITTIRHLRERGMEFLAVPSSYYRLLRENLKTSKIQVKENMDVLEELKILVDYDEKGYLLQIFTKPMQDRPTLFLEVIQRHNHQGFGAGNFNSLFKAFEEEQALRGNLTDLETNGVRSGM
Method: The principle of the assay is that 4-hydroxyphenyl pyruvate dioxygenase (HPPD), an enzyme that participates in the catabolism of tyrosine, catalyses the oxidative decarboxylation and rearrangement of 4-hydroxyphenylpyruvate (HPPA) to homogentisate, with the incorporation of both atoms of molecular oxygen into the product.
Rat liver was homogenised in buffer of the following composition; 0.25 M Sucrose, 5.4 mM EDTA, 20 mM Tris base, pH 7.4, (25% homogenate) using 6 passes of a Potter type homogeniser. The homogenate was then centrifuged at 1,800 g for 10 minutes at 4° C., the pellet was discarded and the supernatant centrifuged at 17,000 g for a further 15 minutes at 4° C. The pellet was then discarded and the supernatant centrifuged at 110,000 g for 80 minutes at 4° C. The supernatant containing the HPPD enzyme from this 110,000 g spin was collected and stored frozen at −70° C. and used in the assays of the test compounds (see below).
Prior to the start of the enzymatic reaction by the addition of HPPA substrate, the enzyme and test compound (inhibitor) were incubated together for 3 minutes.
In cases where the effects of several concentrations of an inhibitor were investigated, an IC50 value (the half-maximal inhibitory concentration of test compound) was determined by plotting the data using a non-linear regression curve-fitting program using a GraphPad Prism™ software package.
Data are expressed as mean values from two experiments except where indicated. Where appropriate the values are expressed as the mean±standard deviation.

[2] = test system: plasma tyrosine; assay: Plasma tyrosine concentration kinetic profile in the rat following a single oral dose; type: in vivo; settings: single oral dose 10 mg/kg
Method: The plasma tyrosine concentration kinetic profile in the rat was determined for each of the HPPD inhibitor test compounds by administering a single oral dose to 10-12 week old male Sprague Dawley rats. Compounds 3.20, 3.13 and 3.26 were dosed at 2 mg/kg in 1% carboxymethylcellulose (1% CMC) vehicle, whilst compounds 3.22, 3.12, 3.15, 3.18, 3.23, 3.21, 3.11, 3.01, 3.24 and 3.25 were administered at 10 mg/kg in 1% CMC.
Blood samples to determine plasma tyrosine concentration were obtained at frequent intervals during the first 24 hours post-dose, and at 48 hours post-dose. These samples were either compared with blood samples obtained from control rats which only received an equivalent volume of the vehicle, 1% CMC, or by comparison with control samples obtained from the rats 1 hour prior to dosing with test the compound. Prior to the analysis of the samples for plasma tyrosine concentration, the blood samples were centrifuged at 1800 g for 10 minutes at 4° C. The plasma was collected and then filtered through a centrifugal micro partition device at 1500 g for 30 minutes at 4° C. The filtered plasma was then divided into two aliquots and stored frozen at −70° C. for subsequent gradient reverse phase high performance liquid chromatographic (HPLC) analysis of plasma tyrosine. Aliquots of plasma were analysed by HPLC using a 250×4.6 mm Hichrom S5ODS2 column at 30° C., eluted with a mobile phase of water/acetonitrile/trifluoroacetic acid (950:50:2 v/v/v) at a flow rate of 1 ml/min. Detection was by a diode array detector at 274 nm. Appropriate tyrosine standards were run alongside the samples for calibration purposes.
The plasma tyrosine concentration kinetic profile for the test compounds 3.20, 3.13 and 3.26 are shown at the time points 1, 2, 4, 6, 12, 24 and 48 hours post-dose in Table 1.1. The data shown are the mean±standard deviation (n=4), except for the 6 hour time point where the data were obtained from n=3 rats for the control and 3.26 groups.
The plasma tyrosine concentration kinetic profile for the test compounds 3.22, 3.12, 3.15, 3.18, 3.23, 3.21, 3.11, 3.01, 3.24 and 3.25 are shown at the time points −1 hour (pre-dose control), 1, 3, 6, 12, 24 and 48 hours post-dose, in Tables 1.2 and 1.3. The data shown are the mean±standard deviation (n=3), except for the −1 hour time point with compound 3.23, where n=2 (Table 1.2), and for the 3 and 6 hour time points with compound 3.21, where n=2 (Table 1.3).

[3] = test system: AMPT rat model of Parkinson's disease; assay: AMPT rat model of Parkinson's disease (catalepsy descent latency and centre rearing counts); type: in vivo; settings: for Mean Catalepsy Descent Latency (s) / Mean Centre Rearing Counts: 8 h post AMPT; for reversal of AMPT induced deficits in mean centre rearing counts (in words) / reversal of AMPT induced catalepsy (in words): single oral dose 10 mg/kg, -16 or -1 hours
Method: AMPT is a competitive inhibitor of tyrosine hydroxylase. Rats dosed with >150 mg/kg AMPT develop parkinsonian-like behavior and locomotor deficits (e.g. catalepsy and reduced rearing activity) within hours owing to the depletion of striatal dopamine concentration as a consequence of the reduced flux through the dopamine synthetic pathway. […] Indian J. Exp. Biol. 41, 1264-1268).
The effect was compared with appropriate vehicle control groups (oral vehicle was 1% carboxymethylcellulose; CMC) and a group that received a 150 mg/kg i.p. dose of L-dopa.
Eight hours after AMPT (or vehicle) administration rats were assessed for catalepsy and centre rearing activity. During the catalepsy test, the front paws of the rat were placed over a horizontal bar suspended 9 cm off the floor. The time taken for the rat to get off the bar (descent latency) was measured with a maximum time of 3 minutes being allowed. Centre rearing counts were determined over a 1 hour monitoring period using an automated activity monitoring system (AM1053). This system used an array of infrared beams to determine the activity and mobility of each animal. Each cage had 48 infrared beams, 24 on each of two levels arranged in an 8×16, 1″ (25.4 mm) pitch grid. The lower grid measured horizontal x, y movement, whilst the upper grid measured rearing movement. The activity detector operated by counting the number of times the beams changed from unbroken to broken and then incrementing the relevant counters.
These groups were compared to a positive control group (6) dosed with 225 mg/kg AMPT i.p.+150 mg/kg L-dopa i.p. 6.5 hour post AMPT dose. L-dopa was administered with a peripheral dopa decarboxylase inhibitor (benserazide), at 100 mg/kg i.p.
In a second and third series of experiments, the efficacy of eight other HPPD inhibitor test compounds were assessed in the AMPT rat model of Parkinson's disease (Tables 1.5 & 1.6). Male Sprague-Dawley rats (300-350 g) were administered a single i.p. dose of 225 mg/kg AMPT and a single oral dose of 10 mg/kg of the HPPD inhibitor test compound was administered either 1 or 16 hours prior to (−16 or −1 hours) AMPT administration. Behavioral assessment (catalepsy and centre rearing counts) was conducted 8 hours post AMPT administration. The effect was compared with a vehicle control group and a group receiving AMPT alone.

[4] = Table 1.5: 225 mg/kg AMPT i.p. + 10 mg/kg oral at -16 hours
[5] = Table 1.6: 225 mg/kg AMPT i.p. + 10 mg/kg oral at -1 hour
[6] = 100 nM test compound, rat liver cytosol, 3 min pre-incubation

Cc1cc(C(=O)C2=C([O-])CCCC2=O)c(C)c2c1S(=O)(=O)CCC21OCCO1.[K+] [Compound 3.11]
inhibition at 0.1 µM [1]: 9% | inhibition at 0.3 µM [1]: 45% | Plasma Tyrosine Concentration ([2]; 1 hour post-dose): 193 ± 22.9 nmol/mL | Plasma Tyrosine Concentration ([2]; 3 hours post-dose): 338 ± 48.9 nmol/mL | Plasma Tyrosine Concentration ([2]; 6 hours post-dose): 551 ± 80.7 nmol/mL | Plasma Tyrosine Concentration ([2]; 12 hours post-dose): 1041 ± 106.0 nmol/mL | Plasma Tyrosine Concentration ([2]; 24 hours post-dose): 2125 ± 65.8 nmol/mL | Plasma Tyrosine Concentration ([2]; 48 hours post-dose): 993 ± 260.6 nmol/mL | Mean Catalepsy Descent Latency (s) [3, 4]: 9 ± 2.7^+++ s | Mean Centre Rearing Counts [3, 4]: 303 ± 53 counts | reversal of AMPT induced deficits in mean centre rearing counts (in words) [3]: either partially or completely reversing | reversal of AMPT induced catalepsy (in words) ([3]; 10 mg/kg): substantially reversed; also recorded: effective in reversing

CS(=O)(=O)c1ccc(C(=O)C2C(=O)CCCC2=O)c(Cl)c1COCC(F)(F)F [Compound 3.18]
inhibition at 0.1 µM [1]: 31% | Plasma Tyrosine Concentration ([2]; 1 hour post-dose): 177 ± 3.5 nmol/mL | Plasma Tyrosine Concentration ([2]; 3 hours post-dose): 303 ± 3.9 nmol/mL | Plasma Tyrosine Concentration ([2]; 6 hours post-dose): 504 ± 29.4 nmol/mL | Plasma Tyrosine Concentration ([2]; 12 hours post-dose): 1027 ± 62.7 nmol/mL | Plasma Tyrosine Concentration ([2]; 24 hours post-dose): 1987 ± 133.0 nmol/mL | Plasma Tyrosine Concentration ([2]; 48 hours post-dose): 313 ± 216.6 nmol/mL | Mean Centre Rearing Counts [3, 4]: 359 ± 116^+ counts | reversal of AMPT induced catalepsy (in words) ([3]; 10 mg/kg): substantially reversed; also recorded: effective in reversing | reversal of AMPT induced deficits in mean centre rearing counts (in words) ([3]; 10 mg/kg): reached statistical significance; also recorded: either partially or completely reversing

CS(=O)(=O)c1cc(C(F)(F)F)ccc1C(=O)c1cnoc1C1CC1 [Compound 3.01]
inhibition at 0.1 µM [1]: 8% | inhibition at 0.3 µM [1]: 36% | Plasma Tyrosine Concentration ([2]; 1 hour post-dose): 160 ± 7.4 nmol/mL | Plasma Tyrosine Concentration ([2]; 3 hours post-dose): 276 ± 12.9 nmol/mL | Plasma Tyrosine Concentration ([2]; 6 hours post-dose): 445 ± 32.9 nmol/mL | Plasma Tyrosine Concentration ([2]; 12 hours post-dose): 666 ± 16.1 nmol/mL | Plasma Tyrosine Concentration ([2]; 24 hours post-dose): 264 ± 23.5 nmol/mL | Plasma Tyrosine Concentration ([2]; 48 hours post-dose): 110 ± 23.9 nmol/mL | Mean Centre Rearing Counts [3, 5]: 88 ± 26 counts | reversal of AMPT induced deficits in mean centre rearing counts (in words) [3]: either partially or completely reversing | reversal of AMPT induced catalepsy (in words) ([3]; 10 mg/kg): substantially reversed; also recorded: effective in reversing

CC1(C)C(=O)C(C(=O)c2ccc(C(F)(F)F)cc2[N+](=O)[O-])C(=O)C(C)(C)C1=O [Compound 3.23]
inhibition at 0.1 µM [1, 6]: 24% | Plasma Tyrosine Concentration ([2]; 1 hour post-dose): 173 ± 22.0 nmol/mL | Plasma Tyrosine Concentration ([2]; 3 hours post-dose): 307 ± 28.0 nmol/mL | Plasma Tyrosine Concentration ([2]; 6 hours post-dose): 502 ± 37.5 nmol/mL | Plasma Tyrosine Concentration ([2]; 12 hours post-dose): 1041 ± 88.5 nmol/mL | Plasma Tyrosine Concentration ([2]; 24 hours post-dose): 1835 ± 444.1 nmol/mL | Plasma Tyrosine Concentration ([2]; 48 hours post-dose): 299 ± 202.8 nmol/mL | Mean Catalepsy Descent Latency (s) [3, 4]: 10 ± 3.0^+++ s | Mean Centre Rearing Counts [3, 4]: 273 ± 63 counts | reversal of AMPT induced deficits in mean centre rearing counts (in words) [3]: either partially or completely reversing | reversal of AMPT induced catalepsy (in words) ([3]; 10 mg/kg): substantially reversed; also recorded: effective in reversing

CS(=O)(=O)c1cc(C(F)(F)F)ccc1C(=O)C(C#N)C(=O)C1CC1 (stereo not shown) [Compound 3.15]
inhibition at 0.1 µM [1, 6]: 37% | Plasma Tyrosine Concentration ([2]; 1 hour post-dose): 177 ± 21.7 nmol/mL | Plasma Tyrosine Concentration ([2]; 3 hours post-dose): 299 ± 18.8 nmol/mL | Plasma Tyrosine Concentration ([2]; 6 hours post-dose): 458 ± 29.4 nmol/mL | Plasma Tyrosine Concentration ([2]; 12 hours post-dose): 671 ± 119.7 nmol/mL | Plasma Tyrosine Concentration ([2]; 24 hours post-dose): 228 ± 76.6 nmol/mL | Plasma Tyrosine Concentration ([2]; 48 hours post-dose): 117 ± 11.3 nmol/mL | Mean Catalepsy Descent Latency (s) [3, 5]: 23 ± 8.0^+++ s | Mean Centre Rearing Counts [3, 5]: 199 ± 54 counts | reversal of AMPT induced deficits in mean centre rearing counts (in words) [3]: either partially or completely reversing | reversal of AMPT induced catalepsy (in words) ([3]; 10 mg/kg): substantially reversed; also recorded: effective in reversing
